In ChEMBL document CHEMBL5465560, “Selectivity Literature for EUbOPEN Chemogenomic Library” (2024):
One block for each compound: values may come before it.

Experiments:
[1] = target: Mitogen-activated protein kinase 9 (Homo sapiens, UniProt P45984); experiment: Selectivity interaction (KinomeScan (DiscoverX)) EUB0000666a MAPK9; conditions: at 10 µM
[2] = system: Mast/stem cell growth factor receptor Kit (Homo sapiens), P10721 [T670I]; experiment: (§1) Selectivity interaction (SelectScreen profiling (Invitrogen)) EUB0000607a KIT; conditions: at 2 µM
Mast/stem cell growth factor receptor Kit (Homo sapiens), P10721 [T670I], sequence (P10721 whole entry T670I): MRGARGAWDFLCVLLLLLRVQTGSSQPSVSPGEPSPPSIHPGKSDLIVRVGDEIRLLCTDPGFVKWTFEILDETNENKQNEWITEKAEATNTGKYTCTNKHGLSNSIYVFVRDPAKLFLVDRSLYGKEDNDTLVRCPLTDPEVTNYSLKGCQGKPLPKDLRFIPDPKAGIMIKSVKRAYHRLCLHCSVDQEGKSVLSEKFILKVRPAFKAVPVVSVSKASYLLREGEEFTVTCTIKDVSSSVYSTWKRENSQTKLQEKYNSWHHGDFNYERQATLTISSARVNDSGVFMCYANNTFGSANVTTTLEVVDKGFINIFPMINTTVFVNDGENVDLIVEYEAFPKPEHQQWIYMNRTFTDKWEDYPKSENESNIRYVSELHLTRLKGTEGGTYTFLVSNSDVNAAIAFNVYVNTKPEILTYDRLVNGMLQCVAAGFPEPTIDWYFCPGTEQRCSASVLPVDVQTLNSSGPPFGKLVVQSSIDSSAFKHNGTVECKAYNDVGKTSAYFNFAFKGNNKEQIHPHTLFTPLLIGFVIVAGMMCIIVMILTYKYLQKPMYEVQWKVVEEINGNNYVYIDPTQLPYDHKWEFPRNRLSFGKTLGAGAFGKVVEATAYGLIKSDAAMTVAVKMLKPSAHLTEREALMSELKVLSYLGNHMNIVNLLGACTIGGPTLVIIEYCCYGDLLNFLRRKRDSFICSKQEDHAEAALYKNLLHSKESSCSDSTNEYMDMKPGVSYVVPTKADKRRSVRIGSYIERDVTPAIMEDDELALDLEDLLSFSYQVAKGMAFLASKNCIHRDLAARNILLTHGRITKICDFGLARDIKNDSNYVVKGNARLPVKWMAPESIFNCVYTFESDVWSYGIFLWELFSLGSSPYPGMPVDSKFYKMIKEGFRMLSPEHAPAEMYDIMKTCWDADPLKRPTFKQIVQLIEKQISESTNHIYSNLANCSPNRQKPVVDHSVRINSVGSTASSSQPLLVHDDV

[3] = target: Mast/stem cell growth factor receptor Kit (Homo sapiens, UniProt P10721); experiment: as §1; conditions: at 2 µM
Mast/stem cell growth factor receptor Kit, sequence (P10721 whole entry): as the sequence (P10721 whole entry T670I) above, with I670T counted along it

[4] = target: T1, Mitogen-activated protein kinase kinase kinase 15 (Homo sapiens) (UniProt Q6ZN16); experiment: Selectivity interaction (KinomeScan (DiscoverX)) EUB0000045b MAP3K15
T1 sequence (whole entry): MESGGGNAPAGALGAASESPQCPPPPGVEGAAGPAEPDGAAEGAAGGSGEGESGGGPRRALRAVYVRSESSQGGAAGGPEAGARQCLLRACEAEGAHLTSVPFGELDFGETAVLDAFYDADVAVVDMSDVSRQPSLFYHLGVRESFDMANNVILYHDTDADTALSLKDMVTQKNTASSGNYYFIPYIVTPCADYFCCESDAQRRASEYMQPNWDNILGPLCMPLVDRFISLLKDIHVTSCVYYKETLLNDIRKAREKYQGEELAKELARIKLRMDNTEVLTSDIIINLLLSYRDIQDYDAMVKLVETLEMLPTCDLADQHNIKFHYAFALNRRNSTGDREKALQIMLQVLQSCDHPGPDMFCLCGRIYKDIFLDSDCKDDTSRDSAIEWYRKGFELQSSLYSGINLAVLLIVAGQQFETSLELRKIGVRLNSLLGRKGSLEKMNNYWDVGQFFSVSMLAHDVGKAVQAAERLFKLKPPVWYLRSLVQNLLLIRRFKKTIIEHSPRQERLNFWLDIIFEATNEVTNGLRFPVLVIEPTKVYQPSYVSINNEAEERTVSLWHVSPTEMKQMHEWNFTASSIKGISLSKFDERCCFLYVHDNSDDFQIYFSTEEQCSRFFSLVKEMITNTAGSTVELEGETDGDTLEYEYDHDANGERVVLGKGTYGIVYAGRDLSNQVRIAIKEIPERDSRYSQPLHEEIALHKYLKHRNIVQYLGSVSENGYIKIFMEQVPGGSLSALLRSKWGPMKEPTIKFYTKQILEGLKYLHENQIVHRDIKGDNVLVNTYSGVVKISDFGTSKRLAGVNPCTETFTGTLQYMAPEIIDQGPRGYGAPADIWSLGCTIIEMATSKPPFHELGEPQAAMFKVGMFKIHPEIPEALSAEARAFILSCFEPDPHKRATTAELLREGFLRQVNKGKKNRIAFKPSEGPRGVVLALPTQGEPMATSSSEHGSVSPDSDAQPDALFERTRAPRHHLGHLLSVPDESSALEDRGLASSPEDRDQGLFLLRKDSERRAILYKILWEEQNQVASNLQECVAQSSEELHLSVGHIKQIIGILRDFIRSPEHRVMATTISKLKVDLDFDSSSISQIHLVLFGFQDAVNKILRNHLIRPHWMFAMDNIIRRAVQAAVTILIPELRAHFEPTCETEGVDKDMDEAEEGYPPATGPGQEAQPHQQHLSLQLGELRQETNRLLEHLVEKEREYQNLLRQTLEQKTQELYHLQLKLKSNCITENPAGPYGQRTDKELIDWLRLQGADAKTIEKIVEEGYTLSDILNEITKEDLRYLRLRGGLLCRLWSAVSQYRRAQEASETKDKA

[5] = target: T2, Interleukin-1 receptor-associated kinase 3 (Homo sapiens) (UniProt Q9Y616); experiment: Selectivity interaction (KinomeScan (DiscoverX)) EUB0001550a IRAK3; conditions: at 1 µM
T2 sequence (whole entry): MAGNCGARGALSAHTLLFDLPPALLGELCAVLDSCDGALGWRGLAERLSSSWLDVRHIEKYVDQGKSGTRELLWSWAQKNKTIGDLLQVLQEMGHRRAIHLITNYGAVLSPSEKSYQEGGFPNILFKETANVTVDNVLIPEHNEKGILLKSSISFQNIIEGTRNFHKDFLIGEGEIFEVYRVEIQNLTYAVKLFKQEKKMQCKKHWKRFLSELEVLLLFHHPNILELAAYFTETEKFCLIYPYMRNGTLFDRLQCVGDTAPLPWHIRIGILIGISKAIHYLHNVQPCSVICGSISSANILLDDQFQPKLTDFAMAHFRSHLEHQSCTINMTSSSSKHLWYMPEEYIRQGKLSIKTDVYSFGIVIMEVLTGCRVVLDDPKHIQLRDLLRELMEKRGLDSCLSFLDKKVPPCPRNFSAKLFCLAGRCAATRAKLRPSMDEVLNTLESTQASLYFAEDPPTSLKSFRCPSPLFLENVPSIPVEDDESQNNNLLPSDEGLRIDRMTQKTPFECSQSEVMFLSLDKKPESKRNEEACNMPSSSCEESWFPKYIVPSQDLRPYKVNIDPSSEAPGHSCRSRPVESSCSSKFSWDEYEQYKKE

[6] = target: T3, Ankyrin repeat and protein kinase domain-containing protein 1 (Homo sapiens) (UniProt Q8NFD2); experiment: Selectivity interaction (KinomeScan (DiscoverX)) EUB0000092b ANKK1; conditions: at 10 µM
T3 sequence (whole entry): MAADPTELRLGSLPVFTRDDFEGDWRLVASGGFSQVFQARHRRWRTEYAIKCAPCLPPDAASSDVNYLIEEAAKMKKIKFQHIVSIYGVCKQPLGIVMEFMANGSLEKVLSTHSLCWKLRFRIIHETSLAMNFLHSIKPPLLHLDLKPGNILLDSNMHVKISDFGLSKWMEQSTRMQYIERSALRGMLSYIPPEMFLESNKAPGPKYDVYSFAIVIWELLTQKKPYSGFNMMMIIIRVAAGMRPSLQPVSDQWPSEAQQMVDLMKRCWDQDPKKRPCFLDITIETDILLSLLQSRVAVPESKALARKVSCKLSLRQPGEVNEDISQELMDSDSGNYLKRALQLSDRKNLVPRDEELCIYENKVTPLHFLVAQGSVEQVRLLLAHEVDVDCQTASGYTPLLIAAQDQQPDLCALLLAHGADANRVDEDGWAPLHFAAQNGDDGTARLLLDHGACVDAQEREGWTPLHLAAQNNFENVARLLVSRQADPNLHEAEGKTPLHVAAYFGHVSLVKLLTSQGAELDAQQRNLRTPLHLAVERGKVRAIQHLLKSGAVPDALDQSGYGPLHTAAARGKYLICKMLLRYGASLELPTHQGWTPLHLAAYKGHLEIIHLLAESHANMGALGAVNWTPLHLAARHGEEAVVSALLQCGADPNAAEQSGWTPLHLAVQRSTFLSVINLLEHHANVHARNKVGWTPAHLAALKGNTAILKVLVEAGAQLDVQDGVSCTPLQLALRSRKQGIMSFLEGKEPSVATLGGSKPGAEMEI

[7] = target: Tyrosine-protein kinase JAK1 (Homo sapiens, UniProt P23458); conditions: at 10 µM
Tyrosine-protein kinase JAK1, sequence (P23458 whole entry): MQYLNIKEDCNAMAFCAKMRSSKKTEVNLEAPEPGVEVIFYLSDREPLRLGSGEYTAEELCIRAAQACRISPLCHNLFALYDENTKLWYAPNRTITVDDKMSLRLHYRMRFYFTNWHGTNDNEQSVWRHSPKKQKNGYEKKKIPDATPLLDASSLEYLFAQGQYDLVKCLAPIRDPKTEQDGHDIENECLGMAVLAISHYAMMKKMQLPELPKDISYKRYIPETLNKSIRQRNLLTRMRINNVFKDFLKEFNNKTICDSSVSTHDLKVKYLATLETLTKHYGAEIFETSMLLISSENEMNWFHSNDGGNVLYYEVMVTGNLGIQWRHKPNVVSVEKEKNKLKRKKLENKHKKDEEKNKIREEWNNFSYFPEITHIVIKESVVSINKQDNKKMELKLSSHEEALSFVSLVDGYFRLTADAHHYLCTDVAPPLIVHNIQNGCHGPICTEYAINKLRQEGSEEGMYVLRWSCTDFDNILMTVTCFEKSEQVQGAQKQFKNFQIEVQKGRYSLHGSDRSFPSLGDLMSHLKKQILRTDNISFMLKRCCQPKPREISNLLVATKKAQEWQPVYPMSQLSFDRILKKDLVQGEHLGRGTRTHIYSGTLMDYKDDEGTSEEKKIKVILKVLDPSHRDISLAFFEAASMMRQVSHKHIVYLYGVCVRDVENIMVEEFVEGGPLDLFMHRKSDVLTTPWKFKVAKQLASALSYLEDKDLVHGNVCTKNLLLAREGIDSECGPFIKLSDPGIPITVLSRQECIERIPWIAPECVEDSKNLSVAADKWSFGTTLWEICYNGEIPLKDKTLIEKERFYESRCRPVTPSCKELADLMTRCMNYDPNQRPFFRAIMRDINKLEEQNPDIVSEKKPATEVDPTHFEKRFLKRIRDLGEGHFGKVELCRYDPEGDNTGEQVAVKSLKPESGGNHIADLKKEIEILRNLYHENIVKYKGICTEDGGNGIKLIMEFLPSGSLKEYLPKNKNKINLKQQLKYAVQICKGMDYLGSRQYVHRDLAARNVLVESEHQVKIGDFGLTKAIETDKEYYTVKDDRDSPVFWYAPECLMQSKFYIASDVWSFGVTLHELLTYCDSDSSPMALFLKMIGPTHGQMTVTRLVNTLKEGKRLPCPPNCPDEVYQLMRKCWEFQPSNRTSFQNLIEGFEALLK

[8] = target: Serine/threonine-protein kinase pim-1 (Homo sapiens, UniProt P11309); experiment: Selectivity interaction (KinomeScan (DiscoverX)) EUB0001619a PIM1; conditions: at 1 µM
Serine/threonine-protein kinase pim-1, sequence (P11309 whole entry, looked up): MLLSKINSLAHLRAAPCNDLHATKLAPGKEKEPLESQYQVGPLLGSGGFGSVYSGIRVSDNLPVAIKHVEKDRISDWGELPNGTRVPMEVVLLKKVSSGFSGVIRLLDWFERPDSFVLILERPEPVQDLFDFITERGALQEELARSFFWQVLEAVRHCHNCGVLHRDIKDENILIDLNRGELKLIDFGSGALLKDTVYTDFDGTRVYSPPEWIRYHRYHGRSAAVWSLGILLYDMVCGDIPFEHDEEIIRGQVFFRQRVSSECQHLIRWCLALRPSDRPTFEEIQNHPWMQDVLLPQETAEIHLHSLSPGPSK

Mitogen-activated protein kinase 9, sequence (P45984 whole entry, looked up): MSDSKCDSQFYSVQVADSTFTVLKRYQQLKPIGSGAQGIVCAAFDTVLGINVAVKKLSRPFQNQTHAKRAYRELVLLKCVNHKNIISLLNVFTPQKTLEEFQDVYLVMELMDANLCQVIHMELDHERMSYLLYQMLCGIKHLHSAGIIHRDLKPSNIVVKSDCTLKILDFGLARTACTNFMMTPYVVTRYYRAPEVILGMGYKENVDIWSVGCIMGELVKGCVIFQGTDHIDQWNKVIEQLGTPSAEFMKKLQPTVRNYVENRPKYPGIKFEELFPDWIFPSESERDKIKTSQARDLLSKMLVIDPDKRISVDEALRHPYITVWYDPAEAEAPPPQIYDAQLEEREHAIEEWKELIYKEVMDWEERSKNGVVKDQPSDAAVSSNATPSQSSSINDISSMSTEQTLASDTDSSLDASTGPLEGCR

Structure (SMILES): O=C(NOC[C@H](O)CO)c1ccc(F)c(F)c1Nc1ccc(I)cc1F
- % of control [1]: 88%

Structure (SMILES): CNC(=O)Nc1ccc(-c2nc(N3CC4CCC(C3)O4)c3cnn(C4CCC5(CC4)OCCO5)c3n2)cc1
- % of inhibition [2]: 7%
- % of inhibition [3]: 10%

Structure (SMILES): C=CC(=O)Nc1cc(-n2c(=O)ccc3cnc4ccc(-c5ccc(NS(C)(=O)=O)cc5)cc4c32)ccc1C
- % of control ([4]; at 1 µM): 70%
- % of control ([4]; at 10 µM): 100%

- % of control [5]: 9.2%
Structure (SMILES): CN(C)CC#Cc1ccc2[nH]c3c(c2c1)-c1nc(N)ncc1CCC3

Structure (SMILES): CCC(=O)N1CCN(c2ccc(-n3c(=O)ccc4cnc5ccc(-c6cnc7ccccc7c6)cc5c43)cc2C(F)(F)F)CC1
- % of control [6]: 93%

Structure (SMILES): Cc1cc([C@@H](C)Nc2ccccc2C(=O)O)c2nc(N3CCOCC3)cc(=O)n2c1 [AZD-6482]
- % of control [7]: 100%

Structure (SMILES): N#Cc1cccc(-c2c[nH]c3ncnc(N4CCOCC4)c23)c1
- % of control [8]: 100%
